# Measurements: patent US10808009B2, “Peptide conjugates” (BIONIZ, LLC, priority 2011, dated 2020)
# No end group written: not given here.
# Legend:
# IL-15 = IL-15 (Homo sapiens, UniProt P40933); assay: PT-18β proliferation assay (WST-1), IL-15; type: cell-based; settings: PT-18β cells, 1 nM IL-15, BNZ-γ from HEK293T supernatant 1:20 or 1:50, 2 days
# Description: (§1) For each of the six γc-cytokines, indicator cell lines: CTLL-2, a murine CD8 T cells line available from American Type Culture Collection, and PT-18, a murine mast cell line and its subclone PT-183, is transfected with human IL-2Rβ gene to make the cells responsive to IL-2 and IL-15 (Tagaya et al., 1996, EMBO J. 15:4928-39), and is used to quantitatively determine the γc-cytokine's growth-promoting activity (See Current protocols in Immunology from Wiley and Sons for a methodological reference). […] Once the appropriate doses of the cytokine that yield the 50% and 95% maximum response from the indicator cell line is determined, various concentrations (ranging from 1 pM to 10 μM) of the purified or synthesized custom derivative peptide is added to each well containing the cytokine and indicator cells. The reduction in light absorbance at 450 nm is used as an indicator of inhibition of cytokine-stimulated cellular proliferation. Typically, the cells are stimulated by the cytokines such that the absorbance of the well containing indicator cell line and the cytokine is between 2.0 and 3.0, which is reduced to a range of 0.1 to 0.5 by the addition of inhibitory peptides.
# (§2) The growth-responses of the cells were determined 2 days after the introduction of BNZ-γ peptide and the cytokine using the WST-1 assay. […]
# IL-2 = assay: PT-18 proliferation assay, IL-2 (FIG. 3A legend); type: cell-based
# Experimental: The growth-responses of the cells were determined 2 days after the introduction of BNZ-γ peptide and the cytokine using the WST-1 assay. […] Cellular proliferation stimulated by IL-4, another γc-cytokine, was not affected by the by the addition of BNZ-γ peptide. Results for IL-3, IL-9, IL-15, and IL-4 are shown at FIG. 3A.
# γc-cytokines = assay: Target cytokine spectrum within the γc-family (summary statements); type: cell-based
# IL-3 = target: T1, IL-3 (Mus musculus, UniProt P01586); assay: PT-18β proliferation assay (WST-1), IL-3 (non γc-cytokine control); type: cell-based; settings: PT-18β cells, 1 nM IL-3, BNZ-γ from HEK293T supernatant 1:20 or 1:50, 2 days
# T1 sequence (P01586 27-166): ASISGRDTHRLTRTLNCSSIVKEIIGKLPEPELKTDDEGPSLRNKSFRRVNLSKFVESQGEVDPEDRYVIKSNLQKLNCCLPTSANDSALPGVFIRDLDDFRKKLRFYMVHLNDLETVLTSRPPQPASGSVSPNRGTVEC
# Description: as §1, §2
# [1] = test system: T-cells in HAM/TSP culture
# Experimental: Proliferation assays were performed on HAM/TSP patient blood samples with and without the addition of BNZ-γ. These assays evaluated the ability of BNZ-γ to block the function of cytokines, such as IL-2 and IL-15, present in the ex vivo HAM/TSP patient blood culture and prevent spontaneous T-cell proliferation in these samples.
# In an ex vivo spontaneous T-cell proliferation assay, PBMC from HAM/TSP patient was cultured at 1×10(6) cells per well of a 96 well plate in RPMI-10% FCS. Increasing concentrations of BNZ-γ peptide were added to each well. […] The cells were incubated in a 37° C. CO2 incubator for 3, 4, and 6 days. The amount of 1 uCi of ^3H-thymidine was added to the cells. After an additional 6 hour incubation, cells were harvested their proliferation rate was measured.
# Other immunological markers were additionally measured in this assay. […] The population of CD4+CD25+ cells, a marker of T-cell activation, as well as Ki67 staining, a marker of T-cell proliferation, was monitored in a flow cytometry assay.
# IL-9 = target: T2, IL-9 (Mus musculus, UniProt P15247); assay: PT-18β proliferation assay (WST-1), IL-9; type: cell-based; settings: PT-18β cells, 1 nM IL-9, BNZ-γ from HEK293T supernatant 1:20 or 1:50, 2 days
# T2 sequence (P15247 19-144): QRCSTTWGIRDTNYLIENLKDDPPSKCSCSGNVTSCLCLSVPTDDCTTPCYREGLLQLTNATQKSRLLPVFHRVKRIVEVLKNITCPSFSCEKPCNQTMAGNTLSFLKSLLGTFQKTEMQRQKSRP
# Description: as §1, §2
# [2] = test system: IL-15-mediated tyrosine-phosphorylation of STAT5; assay: IL-15-mediated tyrosine phosphorylation of STAT5 in PT-18β cells (immunoblot); type: cell-based, murine; settings: PT-18β cells stimulated by IL-15, anti-phospho-STAT5 immunoblot
# Description: In addition to stimulating cellular proliferation, binding of the γc-cytokines to their receptors causes a diverse array of intracellular events. (Rochman et al. 2009 Nat. Rev. Immunol. 9:480-90, Pesu et al. 2005 Immunol. Rev. 203:127-142.) Immediately after the cytokine binds to its receptor, a tyrosine kinase called Jak3 (Janus-kinase 3) is recruited to the receptor at the plasma membrane. This kinase phosphorylates the tyrosine residues of multiple proteins including the γc-subunit, STAT5 (Signal Transducer and Activator of Transcription 5) and subunits of the PI3 (Phosphatidylinositol 3) kinase. Among these, the phosphorylation of STAT5 has been implicated in many studies as being linked to the proliferation of cells initiated by the γc-cytokine. (Reviewed in Hennighausen and Robinson, 2008 Genes Dev. 22:711-21.) In accordance with these published data, whether or not the BNZ-γ peptide inhibits the tyrosine phosphorylation of STAT5 molecule in PT-18β cells stimulated by IL-15 was examined (results shown in FIG. 3C).
# PT-18β cells were stimulated by IL-15 in the presence or absence of BNZ-γ peptide. Cytoplasmic proteins were extracted from the cells according to a conventional method as described in Tagaya et al. 1996 EMBO J. 15:4928-39. […]
# IL-4 = target: T3, IL-4 (Mus musculus, UniProt P07750); assay: PT-18β proliferation assay (WST-1), IL-4; type: cell-based; settings: PT-18β cells, 1 nM IL-4, BNZ-γ from HEK293T supernatant 1:20 or 1:50, 2 days
# T3 sequence (P07750 21-140): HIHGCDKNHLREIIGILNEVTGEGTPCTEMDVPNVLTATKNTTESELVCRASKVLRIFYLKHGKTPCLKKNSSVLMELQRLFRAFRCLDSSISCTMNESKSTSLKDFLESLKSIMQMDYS
# Description: as §1, §2
# IL-6 = assay: T1165 proliferation in the presence of IL-6 (Example 25); type: cell-based, human or mouse
# Experimental: The BNZ130-1 polypeptide as presented in Table 2, above, is tested for its activity in inhibiting IL-6 activity. T1165 cells that are dependent on human or mouse IL-6 for their growth in vitro are selected. The cell line is cultured in the absence of IL-6, In the presence of IL-6, in the presence of BNZ130-1, and in the presence of IL-6 and BNZ130-1.
# [3] = HAM/TSP peripheral blood ex vivo culture, flow cytometry
# Sequence of IL-15 (P40933 49-162): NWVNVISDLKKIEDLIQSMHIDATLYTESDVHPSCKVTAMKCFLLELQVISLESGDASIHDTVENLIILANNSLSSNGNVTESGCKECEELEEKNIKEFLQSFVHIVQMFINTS
Substance,growth-promoting activity of IL-15 (IL-15),IL-2 activity in PT-18 proliferation assay (IL-2),γc-cytokines not inhibited (γc-cytokines),γc-cytokines inhibited (γc-cytokines; BNZ132-2 and BNZ132-3 data not shown),growth-promoting activity of IL-3 (non γc-cytokine) (IL-3),percent of live cells by Guava staining [1],"concentration at which spontaneous proliferation of T-cells is inhibited ([1]; HAM/TSP patient PBMC, 3, 4 and 6 days, 3H-thymidine)","population of CD4+CD25+ cells [1, 3]","population of CD4+Ki67 cells [1, 3]",growth-promoting activity of IL-9 (IL-9),tyrosine phosphorylation of STAT5 [2],cellular proliferation stimulated by IL-4 (IL-4),"effect on T1165 survival (IL-6; Example 25, with or without IL-6)","antagonistic activity on T1165 proliferation in the presence of IL-6 (IL-6; Example 25, written in present tense)"
I-K-E-F-L-Q-R-F-I-H-I-V-Q-S-I-I-N-T-S (IKEFLQRFIHIVQSIINTS) [BNZ-γ],significantly (p<0.01 Student's T test) reduced,inhibition,"IL-4, IL-7 and IL-21","IL-2, IL-15 and IL-9",not inhibited,not impacted,about 1 ug/ml,diminished,reduced,significantly (p<0.01 Student's T test) reduced,markedly reduced,not affected,–,–
LTHLIERSSRAVLQSLLRASRQ [BNZ130-1],–,–,–,–,–,–,–,–,–,–,–,–,does not affect,dose-dependent antagonistic activity
